US6528655B1, “Aromatic derivatives with HIV integrase inhibitory properties” (Pharmacor, Inc., priority 2000, dated 2003)

The molecules below were run against HIV-1 integrase (Human immunodeficiency virus type 1 group M subtype B, UniProt P04585) (assay: HIV-1 integrase inhibition assay (radiolabeled duplex substrate corresponding to the U5 end of the HIV LTR)). Conditions: not given.
Format: biochemical
Method: For the purpose of Table 1 to 4, the HIV-1 integrase inhibition assay was carried out following a known procedure (Burke, Jr. T. R. et al., J. Med. Chem. 38, 4171-4178 (1995)). A suitable radiolabeled duplex substrate corresponding to the U5 end of the HIV LTR was used.
For the purposes of Table 1 to 4 the HIV-1 integrase inhibition assay was based on a known procedure (Hazuda, D. J. et al., Nucleic Acids Res. 22 1121-1122 (1994)).
In the case of `O=C(N[C@H](Cc1cn(C(c2ccccc2)(c2ccccc2)c2ccccc2)cn1)C(=O)NCCc1ccc(O)c(O)c1)c1ccc(O)c([N+](=O)[O-])c1` [Example 18, N-[Nα-(4-Hydroxy-3-nitrobenzoyl)-Nτ-trityl-D-histidinyl]dopamine], the IC50 is reported as 562 nM.
Molecule `O=C(NCCCC[C@H](NC(=O)c1cc2cccc(O)c2cc1O)C(=O)NCCc1ccc(O)c(O)c1)c1cc2cccc(O)c2cc1O` [Example 66, N-[Nα,Nε-di-(3,5-Dihydroxynaphthyl-2-carbonyl)-L-lysyl]dopamine] has an IC50 of over 5000 nM.
`O=C(O)CC[C@H](NC(=O)c1cc(O)c2cccc(O)c2n1)C(=O)NCCc1cccs1` [Example 106, N-[Nα-(4,8-Dihydroxyquinoline-2-carbonyl)-L-glutamyl]-2-(2′-thiophenyl)ethylamine] gave an IC50 of over 10000 nM.
`O=C(C=Cc1ccc(O)c(O)c1)NC(Cc1cn(C(c2ccccc2)(c2ccccc2)c2ccccc2)cn1)C(=O)NCc1ccc(O)c(O)c1` [Example 31, N-(Nα-Caffeoyl-Nτ-trityl-L-histidinyl)-3,4-dihydroxybenzylamine] gave an IC50 of 364 nM.
`O=C(C=Cc1ccc(O)c(O)c1)NC(Cc1cn(C(c2ccccc2)(c2ccccc2)c2ccccc2)cn1)C(=O)NCCc1ccc(O)c(O)c1` [Example 13, N-(Nα-Caffeoyl-Nτ-trityl-L-histidinyl)dopamine] showed an IC50 of 369 nM.
With `CC(C)(C)OC[C@H](NC(=O)c1ccc(OCc2ccc(F)cc2)c(OCc2ccc(F)cc2)c1)C(=O)NCCc1ccc(O)c(O)c1` [Example 97, N-[Nα-(3,4-di-(4-Fluorobenzyloxy)benzoyl)-O-tert-butyl-L-seryl]dopamine] the IC50 was 2900 nM.
In the case of `O=C(O)CC[C@H](NC(=O)c1cc2ccccc2n1Cc1ccc(F)cc1)C(=O)NCc1ccccc1` [Example 94, N-[Nα-(N′-(4-Fluorobenzyl)indole-2-carbonyl)-L-glutamyl]benzylamine], the IC50 is reported as 9250 nM.
With `O=C(N[C@@H](Cc1cn(C(c2ccccc2)(c2ccccc2)c2ccccc2)cn1)C(=O)NCCc1ccc(O)c(O)c1)c1cc(O)c(O)c(O)c1` [Example 39, N-[Nα-(3,4,5-Trihydroxybenzoyl)-Nτ-trityl-L-histidinyl]dopamine] the IC50 was 222 nM.
`NC(=O)C[C@H](NC(=O)c1cc2cccc(O)c2cc1O)C(=O)NCCc1ccc(O)c(O)c1` [Example 61, N-[Nα-(3,5-Dihydroxynaphthyl-2-carbonyl)-L-asparagyl]dopamine] was tested, and the IC50 was over 5000 nM.
`O=C(N[C@@H](CO)C(=O)NCCc1ccc(O)c(O)c1)c1cc(O)c(O)c(O)c1` [Example 45, N-[Nα-(3,4,5-Trihydroxybenzoyl)-L-seryl]dopamine] was tested, and the IC50 was 446 nM.
For `Cc1ccc(C(NC(=O)CC[C@H](NC(=O)c2ccc(O)c([N+](=O)[O-])c2)C(=O)NCc2ccc(O)c(O)c2)(c2ccccc2)c2ccccc2)cc1` [Example 26, N-[Nα-(4-Hydroxy-3-nitrobenzoyl)-Nδ-methyltrityl-L-glutaminyl]-3,4-dihydroxybenzylamine], the IC50 was 533 nM.
Work on `O=C(C=Cc1ccc(O)c(O)c1)NC(Cc1cn(-c2ccc([N+](=O)[O-])cc2[N+](=O)[O-])cn1)C(=O)NCCc1ccc(O)c(O)c1` [Example 19, N-[Nα-Caffeoyl-Nτ-(2,4-dinitrophenyl)-L-histidinyl]dopamine] yielded an IC50 of 560 nM.
`Cc1ccc(C(NC(=O)CC[C@H](NC(=O)/C=C/c2ccc(O)c(O)c2)C(=O)NCc2ccc(O)c(O)c2)(c2ccccc2)c2ccccc2)cc1` [Example 33, N-(Nα-Caffeoyl-Nδ-methyltrityl-L-glutaminyl)-3,4-dihydroxybenzylamine] gave an IC50 of 155 nM.
In the case of `O=C(N[C@@H](Cc1cn(C(c2ccccc2)(c2ccccc2)c2ccccc2)cn1)C(=O)NCCc1ccc(O)c(O)c1)c1ccc(O)c([N+](=O)[O-])c1` [Example 17, N-[Nα-(4-Hydroxy-3-nitrobenzoyl)-Nτ-trityl-L-histidinyl]dopamine], the IC50 is reported as 1600 nM.
`O=C(N[C@@H](Cc1ccc(O)cc1)C(=O)NCCc1ccc(O)c(O)c1)c1cnc(O)nc1O` [Example 4, N-[Nα-(2,4-Dihydroxypyrimidinyl-5-carbonyl)-L-tyrosyl]dopamine] showed an IC50 of over 10000 nM.
Work on `NC(=O)C[C@H](NC(=O)c1cc(O)c2cccc(O)c2n1)C(=O)NCCc1ccc(O)c(O)c1` [Example 67, N-[Nα-(4,8-Dihydroxyquinoline-2-carbonyl)-L-asparagyl]dopamine] yielded an IC50 of over 5000 nM.
`C[C@@H](OCc1ccccc1)[C@H](NC(=O)c1ccc(O)c(O)c1)C(=O)NCCc1ccc(O)c(O)c1` [Example 9, N-[Nα-(3,4-Dihydroxybenzoyl)-O-benzyl-L-threonyl]dopamine] was tested, and the IC50 was over 5000 nM.
`O=C(C=Cc1ccc(O)c(O)c1)NC(Cc1cn(Cc2ccccc2)cn1)C(=O)NCCc1ccc(O)c(O)c1` [Example 40, N-(Nα-Caffeoyl-Nτ-benzyl-L-histidinyl)dopamine] gave an IC50 of 836 nM.
`O=C(N[C@@H](Cc1cn(-c2ccc([N+](=O)[O-])cc2[N+](=O)[O-])cn1)C(=O)NCCc1ccc(O)c(O)c1)c1ccc(O)c(O)c1` [Example 21, N-[Nα-(3,4-Dihydroxybenzoyl)-Nτ-(2,4-dinitrophenyl)-L-histidinyl]dopamine] gave an IC50 of 151 nM.
`Cc1ccc(C(NC(=O)CC[C@H](NC(=O)c2ccc(O)c(O)c2)C(=O)NCCc2ccc(O)c(O)c2)(c2ccccc2)c2ccccc2)cc1` [Example 49, N-[Nα-(3,4-Dihydroxybenzoyl)-Nδ-methyltrityl-L-glutaminyl]dopamine] was tested, and the IC50 was 1300 nM.
For `O=C(C[C@H](NC(=O)c1cc(O)c2cccc(O)c2n1)C(=O)NCCc1ccc(O)c(O)c1)NC(c1ccccc1)(c1ccccc1)c1ccccc1` [Example 64, N-[Nα-(4,8-Dihydroxyquinoline-2-carbonyl)-Nγ-trityl-L-asparagyl]dopamine], the IC50 was 7100 nM.
`O=C(/C=C/c1ccc(O)c(O)c1)N[C@@H](Cc1ccc(O)cc1)C(=O)NNC(=O)c1ccccc1O` [Example 74, N1-(Nα-Caffeoyl-L-tyrosyl)-N2-(2-hydroxybenzoyl)-hydrazine] showed an IC50 of 820 nM.
For `O=C(C=Cc1ccc([N+](=O)[O-])cc1)NC(Cc1cn(C(c2ccccc2)(c2ccccc2)c2ccccc2)cn1)C(=O)NCCc1ccc(O)c(O)c1` [Example 41, N-(Nα-(4-Nitrocinnamoyl)-Nτ-trityl-L-histidinyl)dopamine], the IC50 was 1140 nM.
Molecule `CC(C)(C)OC[C@H](NC(=O)/C=C/c1ccc(O)c(O)c1)C(=O)NCCc1ccc(O)c(O)c1` [Example 42, N-(Nα-Caffeoyl-O-tert-butyl-L-seryl)dopamine] has an IC50 of 442 nM.
Molecule `O=C(O)CC[C@H](NC(=O)c1cc(F)ccc1O)C(=O)NCCc1cccs1` [Example 108, N-[Nα-(5-Fluoro-2-hydroxybenzoyl)-L-glutamyl]-2-(2′-thiophenyl)ethylamine] has an IC50 of over 10000 nM.
With `CC(C)(C)OC(=O)CC[C@H](NC(=O)c1cc(F)ccc1O)C(=O)NCCc1cccs1` [Example 107, N-[Nα-(5-Fluoro-2-hydroxybenzoyl)-Oδ-tert-butyl-L-glutamyl]-2-(2′-thiophenyl)ethylamine] the IC50 was over 10000 nM.
`Cc1ccc(C(NC(=O)CC[C@H](NC(=O)c2ccc(O)c(O)c2)C(=O)NCc2ccc(O)c(O)c2)(c2ccccc2)c2ccccc2)cc1` [Example 32, N-[Nα-(3,4-Dihydroxybenzoyl)-Nδ-methyltrityl-L-glutaminyl]-3,4-dihydroxybenzylamine] showed an IC50 of 256 nM.
`O=C(N[C@@H](Cc1ccc(O)cc1)C(=O)NCCc1ccc(O)c(O)c1)c1cc2cccc(O)c2cc1O` [Example 57, N-[Nα-(3,5-Dihydroxynaphthyl-2-carbonyl)-L-tyrosyl]dopamine] was tested, and the IC50 was 1100 nM.
`CC(C)(C)OC(=O)CC[C@H](NC(=O)c1cccn1Cc1ccc(F)cc1)C(=O)NCCc1cccs1` [Example 101, N-[Nα-(N′-(4-Fluorobenzyl)pyrrole-2-carbonyl)-Oδ-tert-butyl-L-glutamyl]-2-(2′-thiophenyl)ethylamine] showed an IC50 of over 10000 nM.
`CC(C)(C)OC(=O)CC[C@H](NC(=O)c1cc2ccccc2n1Cc1ccc(F)cc1)C(=O)NCCc1cccs1` [Example 102, N-[Nα-(N′-(4-Fluorobenzyl)indole-2-carbonyl)-Oδ-tert-butyl-L-glutamyl]-2-(2′-thiophenyl)ethylamine] showed an IC50 of over 10000 nM.
Work on `O=C(/C=C/c1cccc([N+](=O)[O-])c1)N[C@@H](Cc1cn(C(c2ccccc2)(c2ccccc2)c2ccccc2)cn1)C(=O)NCCc1ccc(O)c(O)c1` [Example 35, N-(Nα-(3-Nitrocinnamoyl)-Nτ-trityl-L-histidinyl)dopamine] yielded an IC50 of 1200 nM.
`CC(C)(C)OC[C@H](NC(=O)c1cc(O)c(O)c(O)c1)C(=O)NCCc1ccc(O)c(O)c1` [Example 43, N-[Nα-(3,4,5-Trihydroxybenzoyl)-O-tert-butyl-L-seryl]dopamine] gave an IC50 of 152 nM.
`Cc1ccc(C(NC(=O)CC[C@H](NC(=O)/C=C/c2ccc(O)c(O)c2)C(=O)NCCc2ccc(O)c(O)c2)(c2ccccc2)c2ccccc2)cc1` [Example 48, N-(Nα-Caffeoyl-Nδ-methyltrityl-L-glutaminyl)dopamine] was tested, and the IC50 was 1150 nM.

Same assay, conditions: Table 2, compounds of formula III′; read-out: IC50
For `Cc1ccc(C(c2ccccc2)(c2ccccc2)n2cnc(C[C@H](NC(=O)c3cc(O)c4cccc(O)c4n3)C(=O)NCCc3ccc(O)c(O)c3)c2)cc1` [Example 71, N-[Nα-(4,8-Dihydroxyquinoline-2-carbonyl)-Nτ-methyltrityl-L-histidinyl]dopamine], the IC50 was 607 nM.

Same assay, conditions: Table 3, compounds of formula IV′; read-out: IC50
`O=C(CC[C@H](NC(=O)c1cc(O)c2cccc(O)c2n1)C(=O)NNC(=O)c1ccccc1O)NNC(=O)c1ccccc1O` [Example 78, N1-[Nα-(4,8-Dihydroxyquinoline-2-carbonyl)-L-glutamyl]-N2/Nδ-di-(2-hydroxybenzoyl)-dihydrazine] showed an IC50 of over 9700 nM.

Same assay, conditions: Table 4, compounds of formula I′; read-out: IC50
In the case of `CC(C)(C)OC[C@H](NC(=O)c1cccn1Cc1ccc(F)cc1)C(=O)NCCc1ccc(O)c(O)c1` [Example 93, N-[Nα-(N′-(4-Fluorobenzyl)pyrrole-2-carbonyl)-O-tert-butyl-L-seryl]dopamine], the IC50 is reported as over 10000 nM.
